The values that follow are results of earlier work, collected in publication PMC4145847 (ChemMedChem, 2014).

Each structure is given as a SMILES string.

One series has as its system Ovarian OVCAR-3. The note with it: read-out: GI50 Ovarian OVCAR-3; NCI-60 panel; cited from earlier work.
In the next series the test system is NCI 60-cell line panel. As to conditions: mean concentration that caused 50% growth inhibition in all 60 cell lines; cited from earlier work.
The subject of a further series is Renal SN12-C. The note with it: read-out: GI50 Renal SN12-C; NCI-60 panel; cited from earlier work.
A further series relates to Colon HCT-116. The note with it: read-out: GI50 Colon HCT-116; NCI-60 panel; cited from earlier work.
A further series has as its system Melanoma UACC-62. As to conditions: read-out: GI50 Melanoma UACC-62; NCI-60 panel; cited from earlier work.
For the next series, the system named is CNS SF-539. The note with it: read-out: GI50 CNS SF-539; NCI-60 panel; cited from earlier work.
A further series deals with Lung HOP-62. As to conditions: read-out: GI50 Lung HOP-62; NCI-60 panel; cited from earlier work.
A further series has as its system Bovine brain tubulin. The note with it: 1.0 μM tubulin, 5.0 μM [3H]colchicine, mean ±SD; cited from earlier work.

As for `COc1cc2c(cc1OS(N)(=O)=O)CC[C@@H]1[C@@H]2CC[C@]2(C)[C@@H](OS(N)(=O)=O)CC[C@@H]12` [Compound 1a, 2-methoxyestradiol-3,17-O,O-bis-sulfamate], the GI50 (as a rule, the concentration at which growth is held to half of that of the control) is below 10 nM with Ovarian OVCAR-3; 126 nM in the series with Renal SN12-C; 45 nM in the series with Colon HCT-116; below 10 nM in the series with Melanoma UACC-62; 36 nM with CNS SF-539; 51 nM in the series on Lung HOP-62. The MGM in the series with NCI 60-cell line panel was 0.087 µM.
`COc1ccc(/C=C\c2cc(OC)c(OC)c(OC)c2)cc1O` [CA-4, combretastatin A-4]: the “Colchicine binding Inhibition at 5 μM inhibitor” value in the series on Bovine brain tubulin was 98 ±0.7%.
